In patent US20240415791A1, “Therapeutic methods and compositions for treating cancer using devimistat and a fatty acid oxidation inhibitor, a tyrosine kinase inhibitor, a glutaminase inhibitor, and/or a glycolysis inhibitor” (Cornerstone Pharmaceuticals, Inc., priority 2021, published 2024):

Legend:
[1] = test system: PANC1 cells; assay: Devimistat-induced cell death (ATP after recovery) in PANC1 cells; assay type: cell-based, human; conditions: exogenous nutrient-free conditions
Method: Cells were plated at 80% confluency in complete RPMI in black, clear bottom 96-well plates or 35-mm dishes for ATP, protein and glycogen analysis, or glass coverslips for fluorescence visualization. To create low nutritional conditions, cells were seeded in complete media, after 24 hours cells were transferred to serum free RPMI for 18-24 hours. Prior to drug treatment, cells were incubated in a nutrient-free carbonate buffered salt solution (CBS2) for 3 hours. Drug treatments were then carried out in CBS2 with addition of nutrient sources and/or chemical agents as described in the Examples and Figures.
LOGIC: High throughput, plate reader assays for cell death essentially always ultimately depend on metabolic activity of cells to identify viability, directly or indirectly. Thus, strong inhibition of metabolic activity by anti-metabolism agents like those described herein can confound cell death analysis by such assays. […] The inventors thus used a recovery-based assay wherein cells are treated with anti-metabolic agents under conditions where mitochondrial metabolism is (or becomes) limiting on viability. After experimental treatment, drug and media are removed and cells are allowed to recover in serum-free RPMI. RPMI provides high levels of glucose in support of glycolytic ATP generation (independently of mitochondrial function), allowing viable cells to recover ATP levels that are ultimately measured in the plate assay to score cell viability. Under these conditions, cells that are committed to execution of cell death by the experimental treatment score as dead and cells that have not committed to cell death recover ATP levels and score as viable.
Specifically, after exposure to the treatments indicated, cells are allowed to recover ([…]) in RPMI without serum. Survival is assessed by conventional luminescence measurement of ATP levels after this recovery.
TECHNICAL DETAILS: Immediately after drug treatments, acute ATP levels of cells in black, clear bottom 96-well plates were measured using the CellTiter-Glo® Luminescent Cell Viability Assay (catalog #G775B) following Promega (Madison, WI) protocols. To assess cell viability, after drug treatments, drug/agent-containing medium was replaced with serum-free RPMI and cells were incubated for an additional 17-24 hours to allow recovery of viable cells, without additional cell division. After this recovery period ATP levels were measured using the CellTiter-Glo® Luminescent Cell Viability Assay as described above.
A. Exogenous glucose protects from devimistat-induced cell death. Four different cell lines were exposed for 15 hours (PANC1, AsPC1, H460) or 8 hours (PC3) to the indicated range of devimistat doses in the absence of exogenous nutrients (in carbonate buffered balanced salts solution, CBS2) after 3 hours of preincubation in CBS2 (for cell adaptation and to equilibrate soluble nutrient pools). Cells were exposed to the treatments indicated, followed by recovery (24 hours) in RPMI without serum (providing nutrient support for viable cell recovery, without serum factors for cell division). Survival is assessed by conventional luminescence measurement of ATP levels after this recovery. […] The relatively large quantitative differences in devimistat sensitivity between cell lines under exogenous nutrient deprivation are characteristic of each line (see examples below), with small experiment-to-experiment variation. […]

[2] = test system: BxPC-3 xenografts; assay: Oral devimistat in BxPC3 pancreatic cancer xenografts; assay type: in vivo, mice; conditions: weekly for 4 weeks
Method: An acclimation period of 7 days was allowed between the arrival of the animal at the study site before tumor inoculation and experimentation. Mice were inoculated subcutaneously (SC) in the right flank with 2×10^6 human H460 NSCLC or BxPC3 pancreatic cancer cells that were suspended in 0.1 mL of Dulbeco's Phosphate Buffered Salt (PBS) solution using a 1 cc syringe with a 27⅝ gauge needle. Tumor dimensions (length and width) were measured daily before, during and after treatment (using Vernier calipers) and the tumor volume was calculated using the prolate ellipsoid formula: (length×width^2)/2. Treatment with test or control articles began 8 days post tumor cell implantation when the tumor was approximately 300 mm^3.
A similar study was conducted in CD-1 nude mice (n=9) inoculated with 2×10^6 BxPC-3 cells. The study was initiated when tumors reached an average size of 150 mm^3 (day 0) and devimistat was administered at an oral dose of […] for 4 weeks. A comparator arm (n=9) was conducted with IP treatment at a weekly dose of 25 mg/kg.

[3] = test system: BxPC3, PANC1, AsPC1 and H460 cells; assay: 3H-2-deoxyglucose uptake by tumor cell lines; assay type: cell-based, human; conditions: 240 μM devimistat, complete RPMI, two hours
Method: Cells were treated in complete RPMI with devimistat (240 μM) for a total of 2 hours, with a pulse of 1,2-^3H 2-deoxyglucose at the end of this treatment for the times indicated in Example 1D and FIG. 1D. Cells were harvested, washed, and counted to asses uptake. More particularly, seeding, drug treatment, and 2DG uptake were all performed in RPMI medium supplemented with 10% FBS for BXPC3, H460 and PANC1 cells and DMEM+10% FBS for AsPC1. All treatments were done in triplicate. BxPC3 cells were seeded at 500,000 cells per 35-mm dish; H460, PANC1, and AsPC1 cells were plated in 6 well plates at 300,000 cells per well for PANC1 and at 500,000 cells per well for AsPC1 and H460. […]
At the end of the 2 hour drug treatment, plates were placed on ice, medium removed and plates were washed three times with ice cold medium without FBS. […] Lysates were transferred into scintillation vials containing 3 mL of scintillation cocktail and counted.
D. Pulse analysis of ^3H-2-deoxyglucose (2DG) uptake by tumor cell lines. ˜8×10^5 cells were treated with 240 μM devimistat or solvent control in complete RPMI for two hours and pulse labeled by addition of 0.5 μCi of ^3H-2DG for the final 0.25 or 1 hour of treatment as indicated in FIG. 1D. Cells were washed in ice-cold RPMI without serum, lysed, and counted (see Methods, above).

[4] = cited from earlier work

## O=C(O)CCCCC(CCSCc1ccccc1)SCc1ccccc1 (centres unmarked) [devimistat, 6,8-bis(benzylsulfanyl)octanoic acid]
[1]
  sensitivity of PANC1 line to devimistat monotherapy: sensitive to devimistat monotherapy
[2]
  tumor growth in BxPC3 xenografts: especially pronounced
[3]
  3H-2-deoxyglucose (glucose) uptake: accelerated glucose uptake
[4]; IV dosing
  half-life after IV dosing: 1 to 2 h
[4]; clinical IV infusion
  peak serum concentration after clinical infusion: ~100 µM
